Results from US7955816B2, “Design and synthesis of biotinylated probes for N-acyl-ethanolamines” (Universita Degli Studi Di Roma “Tor Vergata”, priority 2006, dated 2011).

Key:
[1] = test system: AEA membrane transporter (AMT); experiment: AMT assay in HaCaT cells: uptake of the radiolabelled compound as substrate; format: cell-based, human; conditions: intact HaCaT cells
Method: (§1) HaCaT cells [Maccarrone et al., 2003], were cultured in Dulbecco's minimal essential supplemented with 10% fetal calf serum and 100 units/mL streptomycin/penicillin at 37° C. in a 5% CO2 humidified atmosphere. Cells were split twice a week at 1:5 ratio using 0.05% trypsin (w/v), 0.02% EDTA (w/v) in phosphate-buffered saline (PBS). These cells were grown in six-well plates (2×10^6 cells/well) and were incubated for 10 min at 37° C. with [^3H]AEA (Perkin-Elmer Life Sciences, Inc.; Boston, Mass.) or [^3H]b-AEA, and were washed three times with cold PBS containing 1% bovine serum albumin. To discriminate noncarrier-mediated from carrier-mediated transport of AEA, control experiments were carried out at 4° C. and the values subtracted from those at 37° C. Then, the cells were solubilized in 1 ml of 0.1 M NaOH and neutralized (50 μl of concentrated HCl), and radioactivity was determined by liquid scintillation counting. Incubations were also carried out with different concentrations of [^3H]AEA or [^3H]b-AEA, as indicated in the figures, to determine the apparent Michaelis-Menten constant (Km) and maximum velocity (Vmax). The effect of different compounds on AEA or b-AEA uptake was determined by adding each substance directly to the incubation medium, at different concentrations. The results are shown in FIG. 2A, Table 1 and Table 2.

[2] = target: T1, fatty acid amide hydrolase (FAAH) (Homo sapiens, UniProt O00519); experiment: FAAH activity in HaCaT cell extracts, compound as substrate; format: biochemical; conditions: for hydrolysis by FAAH (substrate or not): FIG. 2B
T1 construct: The reaction was initiated by the addition of HaCaT cell extracts; endogenous in cells; host or cells: HaCaT cell extracts
T1 sequence (O00519 1-579): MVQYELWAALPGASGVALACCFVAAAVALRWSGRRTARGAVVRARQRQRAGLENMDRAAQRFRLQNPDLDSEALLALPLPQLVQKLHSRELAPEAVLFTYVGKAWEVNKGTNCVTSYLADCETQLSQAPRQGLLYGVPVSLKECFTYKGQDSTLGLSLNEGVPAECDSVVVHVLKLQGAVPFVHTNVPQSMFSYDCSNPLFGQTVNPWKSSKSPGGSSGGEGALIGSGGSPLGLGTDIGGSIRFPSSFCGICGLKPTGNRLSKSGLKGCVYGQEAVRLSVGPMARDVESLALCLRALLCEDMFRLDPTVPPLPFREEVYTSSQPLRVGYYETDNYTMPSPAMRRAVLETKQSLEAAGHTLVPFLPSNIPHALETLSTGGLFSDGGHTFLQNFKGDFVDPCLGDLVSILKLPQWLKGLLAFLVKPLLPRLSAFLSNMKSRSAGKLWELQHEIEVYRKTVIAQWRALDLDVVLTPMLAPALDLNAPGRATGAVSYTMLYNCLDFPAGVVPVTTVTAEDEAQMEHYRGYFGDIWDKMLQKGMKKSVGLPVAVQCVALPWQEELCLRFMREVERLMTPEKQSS
Method: (§2) The assay of fatty acid amide hydrolase (E.C. 3.5.1.4, arachidonoylethanolamide amidohydrolase; FAAH) was performed by measuring the release of [^3H]AA from [^3H]AEA (68 mCi/mmol) or [^3H]b-AEA (10 mCi/mmol) through reversed phase high performance liquid chromatography (RP-HPLC) and on-line scintillation counting. [^3H]AEA or [^3H]b-AEA was added to hydrolase assay buffer (50 mM Tris.HCl, pH 9.0) at the indicated concentrations. The reaction was initiated by the addition of HaCaT cell extracts, was continued at 37° C. for 15 min, and then was stopped by the addition of methanol/chloroform/water, with vortexing. This mixture was centrifuged at 3000×g for 5 min, the lower organic phase was dried and the pellet was resuspended in 20 μl of methanol and subjected to RP-HPLC analysis for AA quantitation. The separations of [^3H]AEA or [^3H]b-AEA from [^3H]AA were carried out on a C18 (5 μm, 3.0×150 mm) column, with a mobile phase of methanol-water-acetic acid (85:15:0.1, v/v/v), at a flow rate of 0.8 ml/min. The amount [^3H]AA formed were calculated from the corresponding peak areas. The effect of different concentrations of b-AEA on [^3H]AEA hydrolysis was ascertained by adding the “cold” compound directly to the assay buffer. FAAH activity was expressed as pmol [^3H]AA released from [^3H]AEA per min per mg protein. The results are shown in FIG. 2B, Table 1 and Table 2.

HaCaT cells [3] = experiment: HaCaT cell differentiation (cornified envelope formation); format: cell-based, human; parameters: dose or concentration left out as unconfirmed; conditions: 5 days, FIG. 4
Method: Cell differentiation was induced by treating HaCaT cells with 12-O-tetradecanoylphorbol 13-acetate (TPA; 10 ng/ml) plus calcium chloride (CaCl2; 1.2 mM) for 5 days, as reported [Maccarrone et al., 2003]. AEA and b-AEA (or vehicle in the controls) were added directly to the culture medium at the same time as TPA plus calcium. Cornified envelope (CE), a hallmark of keratinocyte differentiation, was extracted from HaCaT cells (5×10^6/test) by exhaustive boiling and sonication in 2% SDS, 20 mM dithiothreitol, 0.1 M Tris-HCl pH 8.0, and 0.5 mM EDTA. CEs were then purified on Ficoll gradients and recovered as sonicated fragments, free of soluble keratin/filaggrin proteins, after pelleting through Ficoll as previously described [Maccarrone et al., 2003]. CE formation was quantified by spectrophotometry at 600 nm and was normalized to the protein content.

HaCaT cells [4] = conditions: Maccarrone et al., 2003, cited from earlier work
HaCaT cells [5] = experiment: Fluorescence microscopy of b-AEA transport in HaCaT cells; format: cell-based, human
Method: HaCaT cells were plated at a density of 6×10^4 cells/ml on collagen-coated (0.5 mg/ml; Sigma, St. Louis, Mo.) glass coverslips (12 mm). Twenty-four hours after plating, cultures were either left untreated (by adding […] biotin EZ-Link Biotin-PEO-Amine, as negative control) or incubated with […] b-AEA for 10 min at 37° C. in a 5% CO2 humidified atmosphere. […] All steps of the immunofluorescence procedure were performed at room temperature. Cells were washed, fixed with 3% paraformaldehyde (Sigma) for 20 min, and then permeabilized with 0.1% Triton X-100 in PBS for 15 min. After a blocking step in Image-iT™ FX signal enhancer (Molecular Probes, Eugene, Oreg.) for 30 min, cells were incubated for 1 h with anti-biotin primary antibody (Molecular Probes, Eugene, Oreg.), diluted 1:50 in Image-iT™ FX signal enhancer. […] N-Piperidino-5-(4-chlorophenyl)-1-(2,4-dichloro-phenyl)-4-methyl-3-pyrazole carboxamide (SR141716), and N-[1(S)-endo-1,3,3-trimethyl-bicyclo[2.2.1]heptan-2-yl]-5-(4-chloro-3-methylphenyl)-1-(4-methyl-benzyl)-pyrazole-3-carboxa-mide (SR144528) were kind gifts from Sanofi-Aventis Recherche (Montpellier, France). OMDM-1 was a kind gift from Dr. S. Marinelli (Experimental Neurology, IRCCS Fondazione Santa Lucia, Rome, Italy).

CB1R [6] = target: T2, CB1R (Homo sapiens, UniProt P21554); format: binding; conditions: HaCaT membranes, FIG. 2C
T2 construct: endogenous in cells; host or cells: HaCaT cell membrane fractions

[7] = test system: AEA membrane transporter (AMT); experiment: Inhibition of [3H]AEA uptake by AMT in intact HaCaT cells; format: cell-based, human; conditions: 0.5 μM [3H]AEA, read-out: IC50 for reduction of AEA uptake by AMT
Method: as §1

[8] = target: T1, fatty acid amide hydrolase (FAAH); experiment: Inhibition of [3H]AEA hydrolysis by FAAH in HaCaT cell extracts; format: biochemical; conditions: at concentrations up to 10 μM
Method: as §2

NAPE-PLD = target: T3, NAPE-PLD (Homo sapiens, UniProt Q6IQ20); experiment: NAPE-PLD activity in HaCaT cell extracts; format: biochemical; conditions: at concentrations up to 10 μM
T3 construct: endogenous in cells; host or cells: HaCaT cell extracts
Method: HaCaT cell extracts (100 μg/test) were incubated at 37° C. for 30 min with a clear mixture of [^3H]NArPE (ARC; St. Louis, Mo.) and NArPE (“cold” NArPE was synthesized from AA and phosphatidylethanolamine) at a final specific activity of 6.8 nCi/nmol, in 200 μl of 50 mM Tris-HCl, pH 7.4, containing 0.1% Triton X-100. A mixture of chloroform/methanol (2:1, v/v; 600 μl) was added to stop the reaction. Then, the samples were vortexed and centrifuged at room temperature, and the lower organic phase was dried. The pellet was resuspended in 20 μl of methanol and subjected to RP-HPLC coupled to on-line scintillation counting. The separations were carried out on a C18 (5 μm, 3.0×150 mm) column with a mobile phase of methanol-water-acetic acid (85:15:0.1, v/v/v), at a flow rate of 0.8 ml/min. The amount of [^3H]AEA formed was calculated from the corresponding peak areas. The identity of the peaks was assessed also by UV detection of cold standard, recording absorbance at 204 nm. The effect of b-AEA on NAPE-PLD activity was ascertained by adding different concentrations of the biotin-derivative directly to the assay buffer. NAPE-PLD activity was expressed as pmol [^3H]AEA released from [^3H]NArPE per min per mg protein.

CB1R [9] = target: T4, CB1R (Mus musculus, UniProt P47746); experiment: [3H]CP55.940 binding in mouse brain membrane fractions; conditions: mouse brain membranes, read-out: IC50 on CB1 receptors
T4 construct: membrane preparations from mouse brain or mouse spleen were used; from tissue; host or cells: mouse brain membrane fractions

CB2R = target: T5, CB2R (Mus musculus, UniProt P47936); experiment: [3H]CP55.940 binding in mouse spleen membrane fractions; conditions: mouse spleen membranes, read-out: IC50 on CB2 receptors
T5 construct: membrane preparations from mouse brain or mouse spleen were used; from tissue; host or cells: mouse spleen membrane fractions

TRPV1 = target: T6, TRPV1 (Rattus norvegicus, UniProt O35433); experiment: [3H]RTX binding in C6 cells membrane fractions; conditions: competition with [3H]RTX; read-out: IC50 on TRPV1 receptors
T6 construct: membrane fractions isolated from rat neuroblastoma C6 cells were used; endogenous in cells; host or cells: rat C6 cells, membrane fractions
T6 sequence (O35433 whole entry): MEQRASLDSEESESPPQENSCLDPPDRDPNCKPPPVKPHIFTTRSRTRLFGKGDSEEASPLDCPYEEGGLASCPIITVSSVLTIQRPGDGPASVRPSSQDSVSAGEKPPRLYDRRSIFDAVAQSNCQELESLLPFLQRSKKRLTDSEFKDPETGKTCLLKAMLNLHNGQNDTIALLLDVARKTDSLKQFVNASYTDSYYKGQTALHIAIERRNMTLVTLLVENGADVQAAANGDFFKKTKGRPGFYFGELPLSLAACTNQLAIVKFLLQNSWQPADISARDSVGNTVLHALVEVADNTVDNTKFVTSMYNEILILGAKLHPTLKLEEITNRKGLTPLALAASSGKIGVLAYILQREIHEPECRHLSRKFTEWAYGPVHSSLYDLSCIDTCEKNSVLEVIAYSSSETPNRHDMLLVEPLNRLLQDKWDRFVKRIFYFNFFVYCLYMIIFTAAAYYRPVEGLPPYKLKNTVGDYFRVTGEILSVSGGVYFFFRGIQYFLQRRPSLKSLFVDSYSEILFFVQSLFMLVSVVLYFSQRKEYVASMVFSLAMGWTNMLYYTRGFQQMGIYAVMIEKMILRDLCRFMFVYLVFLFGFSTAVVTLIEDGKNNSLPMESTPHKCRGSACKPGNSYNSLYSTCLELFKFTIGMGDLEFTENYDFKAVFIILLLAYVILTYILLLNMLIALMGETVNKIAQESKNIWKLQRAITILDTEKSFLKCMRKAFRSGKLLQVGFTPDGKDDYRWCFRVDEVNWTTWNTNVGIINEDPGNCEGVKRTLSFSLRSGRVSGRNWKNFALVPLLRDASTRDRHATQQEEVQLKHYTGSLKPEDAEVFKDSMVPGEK

T2 sequence (P21554 whole entry): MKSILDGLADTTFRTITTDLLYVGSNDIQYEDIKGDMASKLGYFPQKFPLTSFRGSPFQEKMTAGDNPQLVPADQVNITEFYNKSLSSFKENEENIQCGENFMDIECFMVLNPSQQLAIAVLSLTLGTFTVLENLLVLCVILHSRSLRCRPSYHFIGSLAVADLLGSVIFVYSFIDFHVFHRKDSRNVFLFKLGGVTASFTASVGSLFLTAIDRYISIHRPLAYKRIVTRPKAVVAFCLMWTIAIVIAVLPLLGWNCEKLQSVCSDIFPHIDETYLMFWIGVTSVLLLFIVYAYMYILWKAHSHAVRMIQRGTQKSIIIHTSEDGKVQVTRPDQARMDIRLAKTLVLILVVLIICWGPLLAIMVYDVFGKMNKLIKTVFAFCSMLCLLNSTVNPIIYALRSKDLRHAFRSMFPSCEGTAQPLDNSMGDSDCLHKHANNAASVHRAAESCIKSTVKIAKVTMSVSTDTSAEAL
T4 sequence (P47746 whole entry): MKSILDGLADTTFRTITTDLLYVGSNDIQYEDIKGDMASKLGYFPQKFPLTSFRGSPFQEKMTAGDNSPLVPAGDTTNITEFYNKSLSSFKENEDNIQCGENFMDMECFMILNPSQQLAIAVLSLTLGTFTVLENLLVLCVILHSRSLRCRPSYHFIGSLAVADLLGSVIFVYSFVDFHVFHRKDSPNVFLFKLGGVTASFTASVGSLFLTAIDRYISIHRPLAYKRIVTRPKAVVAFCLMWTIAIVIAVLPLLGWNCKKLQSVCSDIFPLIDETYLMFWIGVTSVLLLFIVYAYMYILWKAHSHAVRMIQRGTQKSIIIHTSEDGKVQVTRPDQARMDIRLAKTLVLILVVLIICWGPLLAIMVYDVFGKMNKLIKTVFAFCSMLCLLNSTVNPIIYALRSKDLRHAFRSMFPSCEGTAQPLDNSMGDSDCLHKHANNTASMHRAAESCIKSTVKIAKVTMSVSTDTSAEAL
T3 sequence (Q6IQ20 whole entry): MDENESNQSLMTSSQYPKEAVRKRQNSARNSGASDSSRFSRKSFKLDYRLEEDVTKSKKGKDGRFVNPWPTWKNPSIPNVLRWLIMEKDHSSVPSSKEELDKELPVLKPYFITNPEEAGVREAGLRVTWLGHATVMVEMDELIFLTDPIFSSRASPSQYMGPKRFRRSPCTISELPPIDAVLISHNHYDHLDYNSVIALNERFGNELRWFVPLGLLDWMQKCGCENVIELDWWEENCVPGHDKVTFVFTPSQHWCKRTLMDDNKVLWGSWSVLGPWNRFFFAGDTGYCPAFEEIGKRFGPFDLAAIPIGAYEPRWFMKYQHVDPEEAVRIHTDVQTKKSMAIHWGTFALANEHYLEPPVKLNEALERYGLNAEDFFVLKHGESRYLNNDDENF
T5 sequence (P47936 whole entry): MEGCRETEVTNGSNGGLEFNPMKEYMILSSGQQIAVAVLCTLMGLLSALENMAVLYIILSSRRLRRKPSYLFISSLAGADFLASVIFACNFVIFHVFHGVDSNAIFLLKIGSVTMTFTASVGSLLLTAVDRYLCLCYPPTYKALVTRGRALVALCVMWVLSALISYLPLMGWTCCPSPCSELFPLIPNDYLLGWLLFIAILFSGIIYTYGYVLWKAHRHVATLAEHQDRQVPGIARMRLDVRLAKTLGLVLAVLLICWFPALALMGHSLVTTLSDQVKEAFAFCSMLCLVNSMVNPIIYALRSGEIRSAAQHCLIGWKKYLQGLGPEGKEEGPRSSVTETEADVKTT

CCCCC/C=C\C/C=C\C/C=C\C/C=C\CCCC(=O)NCCO [AEA, N-arachidonoylethanolamine]
AMT Vmax [1]: 124 ± 8 pmol/min per mg protein
Km [1]: 0.353 ± 0.06 µM
hydrolysis by FAAH (substrate or not) [2]: hydrolyzed in a concentration-dependent manner
FAAH Vmax ([2]; compound as substrate): 385 ± 25 pmol/min per mg protein
effect on HaCaT cell differentiation (CE formation induced by TPA+calcium) (HaCaT cells [3]): blocked
effect on CE formation in HaCaT cells (HaCaT cells [4]; maximum effect at 1 μM): dose-dependently reduces CE formation

CCCCCCCC/C=C\CCCCCCCC(=O)N[C@H](CO)Cc1ccc(O)cc1 [OMDM-1]
effect on b-AEA immunostaining (uptake) of HaCaT cells (HaCaT cells [5]; 5 μM, added 5 min before probe): remarkable decrease of immunostaining

Cc1c(C(=O)NN2CCCCC2)nn(-c2ccc(Cl)cc2Cl)c1-c1ccc(Cl)cc1 [SR141716, N-Piperidino-5-(4-chlorophenyl)-1-(2,4-dichloro-phenyl)-4-methyl-3-pyrazole carboxamide]
reversal of the AEA effect on CE formation (HaCaT cells [4]; 0.1 μM): fully reversed

NC(=O)c1cccc(-c2cccc(OC(=O)NC3CCCCC3)c2)c1 [URB597]
effect on uptake and intracellular trafficking of b-AEA in HaCaT cells (HaCaT cells [5]; 1 μM, added 5 min before probe): did not affect

CCCCC/C=C\C/C=C\C/C=C\C/C=C\CCCC(=O)NCCOCCOCCNC(=O)CCCC[C@@H]1SC[C@@H]2NC(=O)N[C@@H]21 [b-AEA, (+)-N-arachidonoyl-biotinyl-3,6-dioxaoctanediamine]
AMT Vmax [1]: 116 ± 10 pmol/min per mg protein
Km [1]: 0.421 ± 0.088 µM
AMT Vmax ([1]; listed as [^3H]b-AEA): 116 ±10 pmol/min per mg protein
hydrolysis by FAAH (substrate or not) [2]: not a substrate for FAAH
binding to CB1 receptors of HaCaT cells (CB1R [6]): did not bind
IC50 [7]: 0.5 ± 0.1 µM
effect on FAAH activity of HaCaT cells [8]: does not affect
effect on NAPE-PLD activity of HaCaT cells (NAPE-PLD): does not affect
IC50 (CB1R [9]): > 10 µM
IC50 (CB2R): > 10 µM
IC50 (TRPV1): > 10 µM
uptake by HaCaT cells seen by immunofluorescence (HaCaT cells [5]; 5 M per test, FIG. 3): cells quickly take up b-AEA
effect on HaCaT cell differentiation (CE formation induced by TPA+calcium) (HaCaT cells [3]): ineffective
